Source: paper PMC11224556, “Next-generation of BBQ analogues that selectively target breast cancer” (Frontiers in Chemistry, 2024)

Columns and labels:
Type in all cases: cell-based, human
[1] = system: broad panel of cancer cell lines and non-cancer breast cell line MCF10A; experiment: MTT growth inhibition: GI50 ranges and selectivity across the cell line panel; conditions: across the cell lines examined (Table 1)
Source text: (§1) Each BBQ analogue, 2-14 was screened for their growth inhibition ability (GI50) in a broad panel of cancer cell lines and a non-cancer breast cell line (MCF10A), using the MTT growth inhibition assay (Table 1) ([Baker et al., 2021b]). The cancer panel comprised HT29 (colorectal), U87 (brain), SJ-G2 (brain), A2780 (ovary), Du145 (prostate), BE2-C (neuronal), MIA (pancreas), H460 (lung, ER+), A431 (vulva, ER+ (estrogen receptor positive)), and a wide selection of breast cancer cell lines with varying receptor status including MCF-7 (ER + luminal A), T47D (ER/PR+ (progesterone receptor positive)luminal A), ZR-75-1 (ER/PR + luminal A), BT-474 (ER/PR/HER2+ luminal B), SKBR-3 (HER2+), MDA-MB-468, BT20, and MDA-MB-231 (basal, triple negative (TN) for ER, PR, and HER2).
(§2) Stock solutions were prepared as follows and stored as 20 mM DMSO solutions at −20 °C. All cell lines were cultured in a humidified atmosphere 5% CO2 at 37 °C. The cancer cell lines were maintained in Dulbecco’s modified Eagle’s medium (DMEM) (Trace Biosciences, Australia) supplemented with 10% foetal bovine serum (FBS), 10 mM sodium bicarbonate, penicillin (100 IU/mL), streptomycin (100 μg/mL), and glutamine (4 mM). The non-cancer MCF10A cell line was cultured in DMEM:F12 (1:1) cell culture media, 5% heat inactivated horse serum, supplemented with penicillin (50 IU/mL), streptomycin (50 μg/mL), 20 mM Hepes, L-glutamine (2 mM), epidermal growth factor (20 ng/mL), hydrocortisone (500 ng/mL), cholera toxin (100 ng/mL), and insulin (10 μg/mL). The AhR reporter cell line HT29-Lucia™ (Invivogen, United States) was maintained in DMEM supplemented with 10% heat inactivated FBS, L-glutamine (2 mM), penicillin (100 IU/mL), streptomycin (100 μg/mL), 100 μg/mL Normocin™, and 100 μg/mL of the selective antibiotic Zeocin™. All cell lines were purchased from the American Type Culture Collection (ATCC), except for A2780 and A431 which were from the European Collection of Authenticated Cell Cultures (ECACC), and SJ-G2 cell line which was from Dr Mary Danks, St Jude Children’s Research hospital, Memphis, TN.
(§3) Cells in logarithmic growth were transferred to 96-well plates. Cytotoxicity was determined by plating cells in duplicate in 100 μL medium at a density of 2,500–4,000 cells/well in 96 well plates. On day 0, (24 h after plating) when the cells were in logarithmic growth 100 μL medium with or without the test agent was added to each well. After 72 h drug exposure growth inhibitory effects were evaluated using the MTT (3-[4,5-dimethylthiazol-2-yl]-2,5-diphenyltetrazolium bromide) assay with absorbance read at 540 nm. An eight-point dose response curve was produced, using MS Excel software. From these dose-response curves, the GI50 value was calculated, representing the drug concentration at which cell growth is 50% inhibited based on the difference between the optical density values on day 0 and those at the end of drug exposure ([Bradshaw et al., 2008]; [Zhang et al., 2009]). Each data point was conducted in duplicate and the mean ± S.E.M. calculated from four to five replicates (n = 4 or 5), which were performed on separate occasions and separate cell line passages. Where shown, significant test results were determined using T-test analysis at p < 0.01 and p < 0.05 with a two tail distribution.

A431 (vulva/skin) cells = experiment: MTT growth inhibition assay (72 h); conditions: A431, Skin (ER)
Source text: as §1, §2, §3

[2] = system: SKBR3 breast cancer cells; experiment: MTT growth inhibition assay (72 h); conditions: SKBR3, Breast (HER2)
Source text: as §1, §2, §3

[3] = system: ZR-75-1 breast cancer cells; experiment: MTT growth inhibition assay (72 h); conditions: ZR-75-1, Breast (ER/PR)
Source text: as §1, §2, §3

SJ-G2 (brain) cells = experiment: MTT growth inhibition assay (72 h); conditions: SJ-G2, Brain (GBM)
Source text: as §1, §2, §3

A2780 (ovary) cells = experiment: MTT growth inhibition assay (72 h)
Source text: as §1, §2, §3

[4] = system: MDA-MB-468 breast cancer cells; experiment: MTT growth inhibition assay (72 h); conditions: MDA-MB-468, Breast (TN)
Source text: as §1, §2, §3

Du145 (prostate) cells = experiment: MTT growth inhibition assay (72 h)
Source text: as §1, §2, §3

HT29 (colorectal) cells = experiment: MTT growth inhibition assay (72 h); conditions: HT29, Colon
Source text: as §1, §2, §3

H460 (lung) cells = experiment: MTT growth inhibition assay (72 h); conditions: H460, Lung (ER)
Source text: as §1, §2, §3

[5] = system: MCF10A normal breast cells; experiment: MTT growth inhibition assay (72 h)
Source text: as §1, §2, §3

U87 (brain) cells = experiment: MTT growth inhibition assay (72 h); conditions: U87, Brain (GBM)
Source text: as §1, §2, §3

BT20 breast cancer cells = experiment: MTT growth inhibition assay (72 h); conditions: BT20, Breast (TN)
Source text: as §1, §2, §3

MIA (pancreas) cells = experiment: MTT growth inhibition assay (72 h)
Source text: as §1, §2, §3

BE2-C (neuronal) cells = experiment: MTT growth inhibition assay (72 h); conditions: Neuron
Source text: as §1, §2, §3

[6] = system: BT474 breast cancer cells; experiment: MTT growth inhibition assay (72 h); conditions: BT474, Breast (ER/PR/HER2)
Source text: as §1, §2, §3

[7] = system: MDA-MB-231 breast cancer cells; experiment: MTT growth inhibition assay (72 h); conditions: MDA-MB-231, Breast (TN)
Source text: as §1, §2, §3

[8] = system: MCF-7 breast cancer cells; experiment: MTT growth inhibition assay (72 h); conditions: MCF-7, Breast (ER)
Source text: as §1, §2, §3

T47D breast cancer cells = experiment: MTT growth inhibition assay (72 h); conditions: Breast (ER/PR)
Source text: as §1, §2, §3

Substance | fold more potent than head group substituted analogues 3, 4, 6, 7, 8 and 9 [1] [fold] | GI50 (A431 (vulva/skin) cells) [µM] | GI50 [2] [µM] | GI50 [3] [µM] | GI50 (SJ-G2 (brain) cells) [µM] | GI50 (A2780 (ovary) cells) [µM] | GI50 [4] [µM] | GI50 (Du145 (prostate) cells) [µM] | GI50 (HT29 (colorectal) cells) [µM] | GI50 (H460 (lung) cells) [µM] | GI50 [5] [µM] | GI50 (U87 (brain) cells) [µM] | GI50 (BT20 breast cancer cells) [µM] | GI50 (MIA (pancreas) cells) [µM] | GI50 (BE2-C (neuronal) cells) [µM] | GI50 [6] [µM] | GI50 [7] [µM] | GI50 [8] [µM] | GI50 (T47D breast cancer cells) [µM]
3-Nitro-7H-benzo[de]benzo[4,5]imidazo[2,1-a]isoquinolin-7-one (11a) and 4-nitro-7H-benzo[de]benzo[4,5]imidazo[2,1-a]isoquinolin-7-one (11b) [Compound 11] | > 10 | 0.088 ± 0.031 | 0.036 ± 0.006 | 0.0027 ± 0.0022 | 0.61 ± 0.14 | 0.01 ± 0.003 | 0.0015 ± 0.0008 | 0.32 ± 0.049 | 0.3 ± 0.11 | 0.00019 ± 0.0001 | 0.0031 ± 0.002 | 0.55 ± 0.11 | 0.0084 ± 0.004 | 1.4 ± 0.45 | 0.74 ± 0.13 | 0.15 ± 0.053 | 2.1 ± 0.29 | 0.0065 ± 0.0038 | 
7-Oxo-7H-benzo[de]benzo[4,5]imidazo[2,1-a]isoquinoline-10-carbonitrile (9a) and 7-oxo-7H-benzo[de]benzo[4,5]imidazo[2,1-a]isoquinoline-11-carbonitrile (9b) [Compound 9] |  | 1.1 ± 0.1 | 0.27 ± 0.018 | 0.089 ± 0.04 | 26 ± 3.8 | 7 ± 0.64 | 0.074 ± 0.021 | 45 ± 1.7 | 44 ± 6.3 | 41 ± 5.9 | 7.8 ± 1.62 | 43 ± 4 | 9.3 ± 8.4 | 41 ± 9.5 | > 50 | > 50 | 38 ± 6 | 25 ± 8.3 | 4.2 ± 0.73
9-Methyl-7H-benzo[de]benzo[4,5]imidazo[2,1-a]isoquinolin-7-one (8a) and 12-methyl-7H-benzo[de]benzo[4,5]imidazo[2,1-a]isoquinolin-7-one (8b) [Compound 8] |  | 0.56 ± 0.14 | 0.27 ± 0.027 | 0.59 ± 0.38 | 24 ± 8.4 | 11 ± 0.58 | 0.056 ± 0.024 | 38 ± 6.9 | 3.7 ± 0.69 | 27 ± 6.7 | 2 ± 1.3 | 38 ± 2.5 | 1.4 ± 0.8 | 20 ± 10 | 15 ± 10 | 4.6 ± 2.7 | 8.2 ± 3.3 | 2.8 ± 0.61 | 0.8 ± 0.11
10-Methyl-7H-benzo[de]benzo[4,5]imidazo[2,1-a]isoquinolin-7-one (7a) and 11-methyl-7H-benzo[de]benzo[4,5]imidazo[2,1-a]isoquinolin-7-one (7b) [Compound 7] |  | 4.8 ± 0.7 | 1.2 ± 0.93 | 0.19 ± 0.045 | > 50 | 5.2 ± 0.63 | 0.35 ± 0.13 | 37 ± 7.8 | 5 ± 0.07 | 45 ± 8 | 4.7 ± 0.12 | 17 ± 2.7 | 5.2 ± 2 | 8.1 ± 0.97 | 4.9 ± 0.09 | > 50 | 25 ± 7.1 | 3.6 ± 0.4 | 3.1 ± 0.17
